Experimental data taken from patent US20110306561A1, “COMPLEMENT C3a DERIVED DIMERIC PEPTIDES AND USES THEREOF” (Yeda Research And Devlopment Co. Ltd., priority 2009, published 2011).
Like-named read-outs stand apart in the source and are kept apart here. Residues, ends and D or L forms follow the SMILES beside them. No end group written: not given here.

B1: C5a: complement activation product C5a, anaphylatoxin (protein, UniProt P01031 678-751, looked up)
C5a anaphylatoxin: TLQKKIEEIAAKYKHSVVKKCCYDGACVNNDETCEQRAARISLGPRCIKAFTECCVVASQLRANISHKDMQLGR
modifications: C5a anaphylatoxin

Columns and labels:
[1] = test system: RBL-2H3 cells; format: cell-based, rat
Procedure: Mediator secretion by the rat mucosal mast cells, RBL-2H3-line, in response to stimulation by FcεRI clustering was monitored by measuring the activity of the secreted granular enzyme β-hexosaminidase. To this end, a monoclonal DNP-specific murine IgE-class antibody (rat clone 95.3, 1:10^3 dilution) was added to 15×10^6 cells in 10 ml DMEM and incubated in 96 well plates (100 μl suspension/well) for 2 hours. The cell monolayers were then washed three times with Tyrode's buffer (137 mM NaCl, 2.7 mM KCl, 1.8 mM CaCl2, 0.5 mM MgCl2, 0.4 mM NaH2PO4, 5.6 mM glucose, 10 mM Hepes, 0.1% BSA, pH 7.4.) and stimulated with BSA derivatized by an average of 11 DNP groups per molecule (DNP11-BSA) serving as an antigen. To study the effect of the peptides on antigen-induced response, RBL-2H3 cells were pre-incubated with various concentrations of the peptides for 5 minutes at room temperature before the antigen was added at the pre-determined suboptimal dose. The peptides were present throughout the assay. After 1 hour incubation at 37 ° C., 25 μl of the cell supernatants were removed and incubated with 50 μl of β-hexosaminidase substrate solution (1.3 mg/ml p-nitrophenyl-N-acetyl-β-D-glucosamine in 0.1 M sodium citrate, pH 4.5) at 37° C. for 45 minutes. The reaction was terminated by the addition of 150 μl of 0.2 M glycine, pH 10.7, and the optical density of the samples was measured at 405 nm. […] The total enzyme content of the cells/well (following lysis by triton-x-100) and the spontaneous enzyme release of the cells/well was measured in each experiment. All experiments were performed in triplicate and the results were calculated as net secreted enzyme activity (as fraction or percentage of total cell-content) in response to the stimulus.

[2] = test system: RBL-2H3 cells; settings: Erdei et al. 1995, 1999; cited from earlier work
[3] = Circular dichroism (CD) measurement of ordered structure; format: physicochemical; settings: 100 μg/ml in PBS, room temperature; CD+/CD− not defined
Procedure: In order to assess possible structural features that characterize the active peptides, CD measurement were carried out. The CD measurements were performed on an Applied Photophysics spetrometer in 1 mm light path cell, at room temperature (about 25° C.). The peptides stock solutions were usually of 5 mg/ml in water and the measurements were done at a 100 μg/ml dilution in PBS.

Molecule	Inhibition of secretion of 3H2 of RBL cells (IC50) [1] [µg/mL]	Effect on IgE-mediated degranulation of RBL-2H3 cells (literature) [2]	further results
CC[C@H](C)[C@H](NC(=O)[C@H](Cc1ccc(O)cc1)NC(=O)[C@H](CC(N)=O)NC(=O)[C@H](CSSC[C@H](NC(=O)[C@H](CO)NC(=O)[C@@H](N)CC(=O)O)C(=O)N[C@@H](CC(N)=O)C(=O)N[C@@H](Cc1ccc(O)cc1)C(=O)N[C@H](C(=O)N[C@H](C(=O)N[C@@H](CCCNC(=N)N)C(=O)O)[C@@H](C)O)[C@@H](C)CC)NC(=O)[C@H](CO)NC(=O)[C@@H](N)CC(=O)O)C(=O)N[C@H](C(=O)N[C@@H](CCCNC(=N)N)C(=O)O)[C@@H](C)O [Dimer B (5513)2] (HELM PEPTIDE1{D.S.C.N.Y.I.T.R}|PEPTIDE2{D.S.C.N.Y.I.T.R}$PEPTIDE1,PEPTIDE2,3:R3-3:R3$$$V2.0; N-terminus and C-terminus assumed)	25	–	–
Intact human C3a: human complement component C3a, a 77-mer polypeptide as set forth in SEQ ID NO:1	–	inhibit the IgE-mediated degranulation of RBL-2H3 cells	Inhibition of secretion of 3H2 of RBL cells (IC50) ([1]; suboptimal DNP11-BSA antigen stimulus, β-hexosaminidase): 2 µg/mL; Circular Dichroism [3]: CD+
CC[C@H](C)[C@H](NC(=O)[C@H](Cc1ccc(O)cc1)NC(=O)[C@H](CC(N)=O)NC(=O)[C@H](CS)NC(=O)[C@H](CS)NC(=O)[C@@H](N)CC(=O)O)C(=O)N[C@H](C(=O)N[C@@H](CCCNC(=N)N)C(=O)O)[C@@H](C)O [Monomer C3a9, reference compound] (H-DCCNYITR-OH; N-terminus and C-terminus assumed)	200	–	–
DCSNYITR [Monomer A (5508)]	75	–	–
CC[C@H](C)[C@H](NC(=O)[C@H](Cc1ccc(O)cc1)NC(=O)[C@H](CC(N)=O)NC(=O)[C@H](CO)NC(=O)[C@H](CSSC[C@H](NC(=O)[C@@H](N)CC(=O)O)C(=O)N[C@@H](CO)C(=O)N[C@@H](CC(N)=O)C(=O)N[C@@H](Cc1ccc(O)cc1)C(=O)N[C@H](C(=O)N[C@H](C(=O)N[C@@H](CCCNC(=N)N)C(=O)O)[C@@H](C)O)[C@@H](C)CC)NC(=O)[C@@H](N)CC(=O)O)C(=O)N[C@H](C(=O)N[C@@H](CCCNC(=N)N)C(=O)O)[C@@H](C)O [Dimer A (5508)2] (HELM PEPTIDE1{D.C.S.N.Y.I.T.R}|PEPTIDE2{D.C.S.N.Y.I.T.R}$PEPTIDE1,PEPTIDE2,2:R3-2:R3$$$V2.0; N-terminus and C-terminus assumed)	15	–	–
B1	–	no effect	–
